Test [1] has as its target T1, rat NaPi-2b (Rattus norvegicus, UniProt Q9JJ09).
T1 construct: expressed in transfected cells; host or cells: Xenopus oocytes injected with cRNA
T1 sequence (Q9JJ09 1-695): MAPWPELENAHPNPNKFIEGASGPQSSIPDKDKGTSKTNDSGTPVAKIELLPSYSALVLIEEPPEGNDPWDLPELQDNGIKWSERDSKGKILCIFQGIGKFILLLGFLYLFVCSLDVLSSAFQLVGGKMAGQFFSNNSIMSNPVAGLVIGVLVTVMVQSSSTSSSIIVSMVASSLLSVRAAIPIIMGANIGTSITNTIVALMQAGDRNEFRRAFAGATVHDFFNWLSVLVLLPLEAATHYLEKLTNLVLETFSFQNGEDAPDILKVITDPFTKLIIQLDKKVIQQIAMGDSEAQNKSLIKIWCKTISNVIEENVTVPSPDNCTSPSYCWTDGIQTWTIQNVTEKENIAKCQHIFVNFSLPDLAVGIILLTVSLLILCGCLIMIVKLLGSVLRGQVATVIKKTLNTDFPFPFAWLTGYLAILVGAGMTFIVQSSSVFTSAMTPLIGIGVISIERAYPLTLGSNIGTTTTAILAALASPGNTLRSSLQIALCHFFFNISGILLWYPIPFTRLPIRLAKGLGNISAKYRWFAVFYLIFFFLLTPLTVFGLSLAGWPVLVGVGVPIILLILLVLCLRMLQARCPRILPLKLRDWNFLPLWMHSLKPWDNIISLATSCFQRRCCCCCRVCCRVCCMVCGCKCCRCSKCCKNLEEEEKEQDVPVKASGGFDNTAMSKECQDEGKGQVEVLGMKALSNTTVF
The test is described as follows: Sodium-dependent phosphate uptake of Xenopus oocytes which expressed NaPi-2b (32P). It is filed as cell-based. The note with it: Xenopus oocytes expressing rat NaPi-2b, 32P radioactive phosphorus; read-out: IC50 (phosphate uptake inhibitory activity). Put shortly:
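Rat NaPi-2b cloned from small-intestine cDNA; cRNA injected into Xenopus oocytes, expression for 2 days. Phosphate uptake inhibition measured with 32P; percent inhibition at 300 μM and 100 μM read from the same inhibition curve.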

The target of test [2] is T2, human NaPi-2a (Homo sapiens, UniProt Q06495).
T2 construct: expressed in transfected cells
T2 sequence (Q06495 1-639): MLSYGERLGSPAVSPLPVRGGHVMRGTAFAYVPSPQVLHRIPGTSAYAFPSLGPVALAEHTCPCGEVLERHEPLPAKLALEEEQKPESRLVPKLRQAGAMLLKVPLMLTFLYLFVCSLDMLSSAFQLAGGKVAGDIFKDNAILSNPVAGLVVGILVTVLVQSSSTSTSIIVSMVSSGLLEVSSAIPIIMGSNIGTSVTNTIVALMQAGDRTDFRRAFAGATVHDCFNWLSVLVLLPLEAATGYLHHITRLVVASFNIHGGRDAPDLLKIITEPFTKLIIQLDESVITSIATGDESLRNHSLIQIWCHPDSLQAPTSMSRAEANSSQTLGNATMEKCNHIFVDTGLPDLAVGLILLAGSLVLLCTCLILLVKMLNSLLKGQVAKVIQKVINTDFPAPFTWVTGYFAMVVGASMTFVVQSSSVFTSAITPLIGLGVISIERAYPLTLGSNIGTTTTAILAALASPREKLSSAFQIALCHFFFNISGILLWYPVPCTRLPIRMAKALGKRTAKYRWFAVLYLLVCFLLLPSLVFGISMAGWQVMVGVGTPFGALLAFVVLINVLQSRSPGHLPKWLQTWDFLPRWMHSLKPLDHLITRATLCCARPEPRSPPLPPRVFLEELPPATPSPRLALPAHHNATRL
The test is described as follows: Sodium-dependent phosphate uptake of Xenopus oocytes which expressed NaPi-2a (32P). The note with it: phosphate uptake, Xenopus oocytes expressing human NaPi-2a; five concentration levels. The format is cell-based. From the text: Experiment of Sodium-Dependent Phosphate Uptake of Xenopus oocytes which Expressed NaPi-2a
In the test, a group with the addition of choline chloride (Choline Cl) was used as a negative control for nonspecific uptake, and PFA (phosphonoformic acid) was used as a positive control for phosphate transport inhibition.

Broadly, the IC50 is the midpoint of a concentration-inhibition curve.

For `CCN(CC)CCNCc1cccc(C(=O)Nc2sc3c(c2C(=O)N/N=C/c2ccc(F)cc2)CCC3)c1` [Compound 813, 3-[(2-Diethylamino-ethylamino)-methyl]-N-[3-(4-fluoro-benzylidene-hydrazinocarbonyl)-5,6-dihydro-4H-cyclopenta[b]thiophen-2-yl]-benzamide], the IC50 turned out to be 6.25 µM in test [1] and 35.6 µM in test [2].
For `CCN(CC)CCN(C)Cc1cccc(C(=O)Nc2ccc(N3CCCCC3)cc2C(=O)N/N=C/c2ccc(Cl)c(C(F)(F)F)c2)c1` [Compound 862, N-[2-(4-Chloro-3-trifluoromethyl-benzylidene-hydrazinocarbonyl)-4-piperidin-1-yl-phenyl]-3-{[(2-diethylamino-ethyl)-methyl-amino]-methyl}-benzamide] the same measures were 0.35 µM and 1.65 µM.
For `Cc1ccc(/C=N/NC(=O)c2cc(F)ccc2NC(=O)c2cccc(CN(CC(C)O)CC(C)O)c2)cc1` (centres unmarked) [Compound 989, 3-{[Bis-(2-hydroxy-propyl)-amino]-methyl}-N-[4-fluoro-2-(4-methyl-benzylidene-hydrazinocarbonyl)-phenyl]-benzamide] the same measures were below 3 µM and 7.84 µM.
For `O=C(Nc1sc2c(c1C(=O)N/N=C/c1ccc(Cl)c(C(F)(F)F)c1)CCCC2)c1cccc(CN2CCC(O)CC2)c1` [Compound 637, N-[3-(4-Chloro-3-trifluoromethyl-benzylidene-hydrazinocarbonyl)-4,5,6,7-tetrahydro-benzo[b]thiophen-2-yl]-3-(4-hydroxy-piperidin-1-ylmethyl)-benzamide] the same measures were below 1 µM and 0.95 µM.
Take `CC(O)CN(Cc1cccc(C(=O)Nc2sc3ccccc3c2C(=O)N/N=C/c2ccc(F)cc2)c1)CC(C)O` (centres unmarked) [Compound 794, 3-{[Bis-(2-hydroxy-propyl)-amino]-methyl}-N-[3-(4-fluoro-benzylidene-hydrazinocarbonyl)-benzo[b]thiophen-2-yl]-benzamide]: the IC50 in test [1] stood at 0.97 µM; in test [2] it was 9.57 µM.
Consider `Cc1ccc(/C=N/NC(=O)c2c(C)csc2NC(=O)c2cccc(CN(CCO)CCO)c2)cc1C` [Compound 786, 3-{[Bis-(2-hydroxy-ethyl)-amino]-methyl}-N-[3-(3,4-dimethyl-benzylidene-hydrazinocarbonyl)-4-methyl-thiophen-2-yl]-benzamide], for which the IC50 in test [1] was 1.33 µM; in test [2], below 3 µM.
Regarding `O=C(Nc1sc2ccccc2c1C(=O)N/N=C/c1ccc(F)cc1)c1cccc(CN2CCC(CO)CC2)c1` [Compound 800, N-[3-(4-Fluoro-benzylidene-hydrazinocarbonyl)-benzo[b]thiophen-2-yl]-3-(4-hydroxymethyl-piperidin-1-ylmethyl)-benzamide], the figures for the IC50 in test [1] and in test [2] were 9.24 µM and 10 µM, respectively.
The matching figures for `Cc1ccc(/C=N/NC(=O)c2cc(N3CCCCC3)ccc2NC(=O)c2cccc(CSCCC(=O)O)c2)cc1C` [Compound 886, 3-{3-[2-(3,4-Dimethyl-benzylidene-hydrazinocarbonyl)-4-piperidin-1-yl-phenylcarbamoyl]-benzylsulfanyl}-propionic acid]: 0.81 µM and 2.93 µM.
The matching figures for `Cc1ccc(/C=N/NC(=O)c2c(NC(=O)c3cccc(CN4CCC(O)CC4)c3)sc3c2CCCC3)cc1` [Compound 634, 3-(4-Hydroxy-piperidin-1-ylmethyl)-N-[3-(4-methyl-benzylidene-hydrazinocarbonyl)-4,5,6,7-tetrahydro-benzo[b]thiophen-2-yl]-benzamide]: 1.74 µM and 16.9 µM.
For `Cc1csc(NC(=O)c2cccc(CN3CCC4(CC3)OCCO4)c2)c1C(=O)N/N=C/c1ccc(F)cc1` [Compound 834, 3-(1,4-Dioxa-8-aza-spiro[4,5]dec-8-ylmethyl]-N-[3-(4-fluoro-benzylidene-hydrazinocarbonyl)-4-methyl-thiophen-2-yl]-benzamide] the same measures were 19 µM and 52.1 µM.
Take `Cc1ccc(/C=N/NC(=O)c2cc(N3CCCCC3)ccc2NC(=O)c2cccc(CN3CCN(CCO)CC3)c2)cc1` [Compound 865, 3-[4-(2-Hydroxy-ethyl)-piperazin-1-ylmethyl]-N-[2-(4-methyl-benzylidene-hydrazinocarbonyl)-4-piperidin-1-yl-phenyl]-benzamide]: the figures for the IC50 in test [1] and in test [2] were 1.49 µM and 4.34 µM, respectively.
For `CCN(CC)CCN(C)Cc1cccc(C(=O)Nc2ccc(N3CCCCC3)cc2C(=O)N/N=C/c2ccc(C)cc2)c1` [Compound 859, 3-{[(2-Diethylamino-ethyl)-methyl-amino]-methyl}-N-[2-(4-methyl-benzylidene-hydrazinocarbonyl)-4-piperidin-1-yl-phenyl]-benzamide] the same measures were 0.39 µM and 1.6 µM.
The matching figures for `CCN(CC)CCN(CCN(CC)CC)Cc1cccc(C(=O)Nc2scc(C)c2C(=O)N/N=C/c2ccc(C)c(C)c2)c1` [Compound 838, 3-{[Bis-(2-diethylamino-ethyl)-amino]-methyl}-N-[3-(3,4-dimethyl-benzylidene-hydrazinocarbonyl)-4-methyl-thiophen-2-yl]-benzamide]: below 3 µM and 10.2 µM.
With `Cc1ccc(/C=N/NC(=O)c2cc(Cl)ccc2NC(=O)c2cccc(CSCC(O)CO)c2)cc1C` (centres unmarked) [Compound 1009, N-[4-Chloro-2-(3,4-dimethyl-benzylidene-hydrazinocarbonyl)-phenyl]-3-(2,3-dihydroxy-propylsulfanylmethyl)-benzamide], the results for the IC50 in test [1] and in test [2] were 0.1 µM and 1.41 µM, respectively.
The matching figures for `CC(O)CN(Cc1cccc(C(=O)Nc2sc3c(c2C(=O)N/N=C/c2ccc(F)cc2)CCC3)c1)CC(C)O` (centres unmarked) [Compound 807, 3-{[Bis-(2-hydroxy-propyl)-amino]-methyl}-N-[3-(4-fluoro-benzylidene-hydrazinocarbonyl)-5,6-dihydro-4H-cyclopenta[b]thiophen-2-yl]-benzamide]: below 1 µM and 9.07 µM.
The matching figures for `Cc1ccc(/C=N/NC(=O)c2cc(N3CCCCC3)ccc2NC(=O)c2cccc(CN3CCc4nc5ncccc5cc4C3)c2)cc1C` [Compound 893, 3-(7,8-Dihydro-5H-1,6,9-triaza-anthracen-6-ylmethyl)-N-[2-(3,4-dimethyl-benzylidene-hydrazinocarbonyl)-4-piperidin-1-yl-phenyl]-benzamide]: below 0.3 µM and 5.11 µM.
With `O=C(Nc1ccc(N2CCCCC2)cc1C(=O)N/N=C/c1ccc(Cl)c(C(F)(F)F)c1)c1cccc(CSCC(O)CO)c1` (centres unmarked) [Compound 903, N-[2-(4-Chloro-3-trifluoromethyl-benzylidene-hydrazinocarbonyl)-4-piperidin-1-yl-phenyl]-3-(2,3-dihydroxy-propyl-sulfanylmethyl)-benzamide], the IC50 in test [1] and in test [2] was below 1 µM each time.
`Cc1ccc(/C=N/NC(=O)c2cc(F)ccc2NC(=O)c2cccc(CN(CC(C)O)CC(C)O)c2)cc1C` (centres unmarked) [Compound 985, 3-{[Bis-(2-hydroxy-propyl)-amino]-methyl}-N-[2-(3,4-dimethyl-benzylidene-hydrazinocarbonyl)-4-fluoro-phenyl]-benzamide]: the IC50 in test [1] and in test [2] was below 3 µM throughout.
In the case of `CCN(CC)CCNCc1cccc(C(=O)Nc2sc3c(c2C(=O)N/N=C/c2ccc(C)cc2)CCC3)c1` [Compound 811, 3-[(2-Diethylamino-ethylamino)-methyl]-N-[3-(4-methyl-benzylidene-hydrazinocarbonyl)-5,6-dihydro-4H-cyclopenta[b]thiophen-2-yl]-benzamide], the concentration for half-maximal inhibition (IC50) in test [1] came out at 9.11 µM; in test [2], 37.2 µM.
